Assay type: in vivo, Sprague–Dawley (SD) rats
Conditions: rat plasma, single oral gavage of 10 mL/kg ABS, n = 6
Experimental: All rats underwent an acclimation period of a week and overnight fasting with free access to water only. Rats were randomly selected and administered the ABS (n = 6, biological replicates). Each rat was administered with a single ABS oral gavage dose of 10 mL/kg. Blood samples (approximately 150 μL) were collected from the orbital venous plexus using heparinized tubes at predefined time points (0, 0.033, 0.083, 0.167, 0.25, 0.5, 0.75, 1, 2, 4, 6, 8, 10, 12, 24, 36, 48, and 60 h) post-administration. The technical personnel were proficiently trained in performing orbital venous plexus blood draws, employing a technique designed to minimize discomfort to the animals. All rats received an intragastric administration of 1 mL saline at 6 h post-dosing, after which they were provided with unrestricted access to food and water for the remainder of the experimental period. […]
Chromatographic separation was performed on a Thermo BDS Hypersil C18 column (100 × 4.6 mm, 3 µm) with linear gradient elution at a flow rate of 0.7 mL/min using methanol and water both containing 0.1% acetic acid as the mobile phases A and B, respectively. […] The quantification analysis was conducted under multiple reaction monitoring mode with argon collision gas pressure set at 0.2 Pa for collision-induced dissociation. […]

Compound: Cc1cc(O)c2c(c1)C(=O)c1cc(O)cc(O)c1C2=O [EM, emodin]
- t1/2: 4.63 ± 1.53 h

Compound: O=C1C[C@@H](c2ccc(O[C@@H]3O[C@H](CO)[C@@H](O)[C@H](O)[C@H]3O)cc2)Oc2cc(O)ccc21 [LI, liquiritin]
- Tmax: 12 ± 1.8 min
